ChEMBL document CHEMBL1201862, “PubChem BioAssay data set” (2004)
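Step 1: Grow cells in 96-well plates. Step 2: Expose to compound for 48 hours at 5 concentrations. Step 3: Interpolate endpoints linearly; if unreached, use highest concentration. GI50 marks 50% less growth.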 Calls of active or inactive are those of the source. Cut-off read from the data, not from the text of the source: active = GI50 up to about 1.1 µM and inactive = higher.

Key:
Test in all cases: growth of human tumour cells (NCI), 48 h
A498 = tested on: A498
ACHN = tested on: ACHN
HCT-15 = tested on: HCT-15
KM12 = tested on: KM12
Malme-3M = tested on: Malme-3M
RPMI-8226 = tested on: RPMI-8226
RXF 393 = tested on: RXF 393
SF-295 = tested on: SF-295
SK-OV-3 = tested on: SK-OV-3
SN12C = tested on: SN12C
SNB-19 = tested on: SNB-19
UACC-257 = tested on: UACC-257
UACC-62 = tested on: UACC-62
SW-620 = tested on: SW-620

Compound | GI50 (A498) | GI50 (ACHN) | GI50 (HCT-15) [µM] | GI50 (KM12) | GI50 (Malme-3M) | GI50 (RPMI-8226) | GI50 (RXF 393) | GI50 (SF-295) | GI50 (SK-OV-3) | GI50 (SN12C) | GI50 (SNB-19) | GI50 (UACC-257) | GI50 (UACC-62) | GI50 (SW-620)
CCOC(=O)C1=C(OC(OCC)C(CC)[Se]c2ccccc2)CCCC1 (stereo not drawn) | > 100 µM (inactive) | 28.1 µM (inactive) | 16.9 | > 100 µM (inactive) | 16.9 µM (inactive) | 13 µM (inactive) | 20.5 µM (inactive) | 19.1 µM (inactive) | > 100 µM (inactive) | 14.6 µM (inactive) | 40.6 µM (inactive) | 35 µM (inactive) | 19.8 µM (inactive) | 
CC(=O)OC1COC(Nc2ccc(C(C)=O)cc2)C(OC(C)=O)C1OC(C)=O (stereo not drawn) | > 100 µM (inactive) | > 100 µM (inactive) | > 100 | > 100 µM (inactive) | > 100 µM (inactive) | > 100 µM (inactive) | > 100 µM (inactive) | > 100 µM (inactive) | > 100 µM (inactive) | > 100 µM (inactive) | > 100 µM (inactive) | > 100 µM (inactive) | > 100 µM (inactive) | > 100 µM (inactive)
CCOC(OC1=CCCC1)C(C)[Se]c1ccccc1 (stereo not drawn) | 18.2 µM (inactive) | 61.8 µM (inactive) | 16.8 | 43.8 µM (inactive) | 32.8 µM (inactive) | 18.1 µM (inactive) | 32.9 µM (inactive) | 31.5 µM (inactive) | > 100 µM (inactive) | 30.7 µM (inactive) | > 100 µM (inactive) | 36 µM (inactive) | 23.9 µM (inactive) | 
CCOC(=O)NC(=O)c1cn(CCCCCCCCCCC(=O)N2CCN(CCn3cc(C(=O)NC(=O)OCC)c(=O)[nH]c3=O)CC2)c(=O)[nH]c1=O | > 100 µM (inactive) | > 100 µM (inactive) | > 100 |  |  | > 100 µM (inactive) | > 100 µM (inactive) | > 100 µM (inactive) | > 100 µM (inactive) | > 100 µM (inactive) | > 100 µM (inactive) | > 100 µM (inactive) | > 100 µM (inactive) | > 100 µM (inactive)
O=C(NC(=O)c1cn(CCN2CCN(C(=O)NCCCCCCNC(=O)N3CCN(CCn4cc(C(=O)NC(=O)OCc5ccccc5)c(=O)[nH]c4=O)CC3)CC2)c(=O)[nH]c1=O)OCc1ccccc1 |  | > 100 µM (inactive) | > 100 |  | > 100 µM (inactive) | > 100 µM (inactive) | > 100 µM (inactive) | > 100 µM (inactive) | > 100 µM (inactive) | > 100 µM (inactive) | > 100 µM (inactive) | > 100 µM (inactive) | > 100 µM (inactive) | > 100 µM (inactive)
CCOC(=O)C[C@@H](C)[C@]1(C(=O)OC)CCCC1=O | > 100 µM (inactive) | > 100 µM (inactive) | > 100 | > 100 µM (inactive) | > 100 µM (inactive) | > 49.3 µM (inactive) | > 100 µM (inactive) | > 100 µM (inactive) | > 100 µM (inactive) | > 100 µM (inactive) | > 100 µM (inactive) | > 100 µM (inactive) | > 100 µM (inactive) | > 100 µM (inactive)
COC1OC2COC(c3ccccc3)OC2C(O)C1Br (stereo not drawn) | > 100 µM (inactive) | > 100 µM (inactive) | > 100 | > 100 µM (inactive) | > 100 µM (inactive) | > 100 µM (inactive) | > 100 µM (inactive) | > 100 µM (inactive) |  | > 100 µM (inactive) | > 100 µM (inactive) | > 100 µM (inactive) | > 100 µM (inactive) | > 100 µM (inactive)
CC1=C(c2ccccc2)CON(c2ccccc2)C1 |  | 30.2 µM (inactive) | 28.4 | 22.7 µM (inactive) | 56.4 µM (inactive) | 28.4 µM (inactive) | 16.9 µM (inactive) | 30.6 µM (inactive) | > 100 µM (inactive) | 53.6 µM (inactive) | 39.4 µM (inactive) | 40.8 µM (inactive) | 38.5 µM (inactive) | 39.4 µM (inactive)
C/C(=C1/CCC/C(=C(/C)c2ccccc2)C1=O)c1ccccc1 |  | 38.6 µM (inactive) | 31.6 | 27 µM (inactive) | 14.9 µM (inactive) | 23.9 µM (inactive) | 17.6 µM (inactive) | 38.1 µM (inactive) | > 100 µM (inactive) | 50.7 µM (inactive) | > 100 µM (inactive) | 25 µM (inactive) | 37.2 µM (inactive) | 80 µM (inactive)
O=C1c2ccccc2C2C1N2C(=O)C(F)(F)F (stereo not drawn) | > 100 µM (inactive) | > 100 µM (inactive) | > 100 | > 100 µM (inactive) | > 100 µM (inactive) | > 100 µM (inactive) | > 100 µM (inactive) | > 100 µM (inactive) | > 100 µM (inactive) | > 100 µM (inactive) | > 100 µM (inactive) | > 100 µM (inactive) | > 100 µM (inactive) | > 100 µM (inactive)
CCOC(=O)CNC(=O)OCc1ccccc1 | > 100 µM (inactive) | > 100 µM (inactive) | > 100 | > 100 µM (inactive) | > 100 µM (inactive) |  |  | > 100 µM (inactive) | > 100 µM (inactive) | > 100 µM (inactive) | > 100 µM (inactive) | > 100 µM (inactive) | > 100 µM (inactive) | > 100 µM (inactive)
O=C1CC2Sc3ccccc3N=C2N1c1ccc(Cl)cc1Cl (stereo not drawn) |  | 54.3 µM (inactive) |  | 49.8 µM (inactive) | 64.7 µM (inactive) | 49.2 µM (inactive) | 93.5 µM (inactive) | 79.8 µM (inactive) |  | 39.9 µM (inactive) | 77.8 µM (inactive) | > 100 µM (inactive) | 48.3 µM (inactive) | 46.2 µM (inactive)
Cc1cc2c(=O)cc(-c3ccc(Cl)cc3Cl)oc2c(C(=O)O)c1C |  | > 100 µM (inactive) | > 100 | > 100 µM (inactive) | > 100 µM (inactive) | > 100 µM (inactive) | > 100 µM (inactive) | > 100 µM (inactive) | > 100 µM (inactive) | > 100 µM (inactive) | > 100 µM (inactive) | > 100 µM (inactive) | > 100 µM (inactive) | > 100 µM (inactive)
O=C1c2ccccc2C(=O)N1C/C=C/CO | > 100 µM (inactive) | > 100 µM (inactive) | > 100 | > 100 µM (inactive) | > 100 µM (inactive) | > 100 µM (inactive) | > 100 µM (inactive) |  | > 100 µM (inactive) | > 100 µM (inactive) | > 100 µM (inactive) | > 100 µM (inactive) | > 100 µM (inactive) | > 100 µM (inactive)
COc1cc(/C=C2\[C@H]3c4c(c(OC)c(C)c(OC)c4OC)CC(C(=O)N2Cc2ccccc2)N3C)c(OC)c(C)c1OC | 27 µM (inactive) | 26.1 µM (inactive) |  | 36 µM (inactive) | 21.9 µM (inactive) | 20.6 µM (inactive) | > 100 µM (inactive) | 19.8 µM (inactive) | 29.5 µM (inactive) | 17.9 µM (inactive) | 27.2 µM (inactive) | 21 µM (inactive) | 16.4 µM (inactive) | 22.2 µM (inactive)
O=C(O)CCCNS(=O)(=O)c1ccccc1 | > 100 µM (inactive) | > 100 µM (inactive) | > 100 | > 100 µM (inactive) | > 100 µM (inactive) | > 100 µM (inactive) | > 100 µM (inactive) | > 100 µM (inactive) | > 100 µM (inactive) | > 100 µM (inactive) | > 100 µM (inactive) | > 100 µM (inactive) | > 100 µM (inactive) | > 100 µM (inactive)
CC(=O)O/N=C/c1ncccc1OC(C)=O | > 100 µM (inactive) | > 100 µM (inactive) | > 100 | > 100 µM (inactive) | > 100 µM (inactive) |  | > 100 µM (inactive) | > 100 µM (inactive) | > 100 µM (inactive) | > 100 µM (inactive) | > 100 µM (inactive) | > 100 µM (inactive) | > 100 µM (inactive) | > 100 µM (inactive)
COC(=O)CC1NC(=O)C1C(C)(OC)OC (stereo not drawn) | > 100 µM (inactive) | > 100 µM (inactive) | > 100 |  | > 100 µM (inactive) | > 100 µM (inactive) | > 100 µM (inactive) | > 100 µM (inactive) |  | > 100 µM (inactive) | > 100 µM (inactive) | > 100 µM (inactive) | > 100 µM (inactive) | > 100 µM (inactive)
c1ccc(SC(CCCCOC2CCCCO2)Sc2ccccc2)cc1 (stereo not drawn) | 88.7 µM (inactive) | 59.7 µM (inactive) | 91.2 | > 100 µM (inactive) | > 100 µM (inactive) | 32.4 µM (inactive) | 38.8 µM (inactive) | > 100 µM (inactive) | > 100 µM (inactive) | > 100 µM (inactive) | > 100 µM (inactive) | 63.8 µM (inactive) | > 100 µM (inactive) | 76.4 µM (inactive)
O=S(=O)(O)C(F)(F)C(F)(F)C(F)(F)C(F)(F)F | 43.7 µM (inactive) | > 100 µM (inactive) | > 100 | > 100 µM (inactive) | > 100 µM (inactive) | > 100 µM (inactive) | > 100 µM (inactive) | > 100 µM (inactive) | > 100 µM (inactive) | > 100 µM (inactive) | > 100 µM (inactive) | > 100 µM (inactive) | > 100 µM (inactive) | > 100 µM (inactive)
COC1CC2C3/C(=N/Nc4ccc([N+](=O)[O-])cc4[N+](=O)[O-])CCC2(C)C3C1 (stereo not drawn) | > 10 µM (inactive) | > 10 µM (inactive) | > 100 | > 100 µM (inactive) | > 10 µM (inactive) | 78 µM (inactive) |  | > 10 µM (inactive) | > 10 µM (inactive) | > 10 µM (inactive) | > 10 µM (inactive) | > 100 µM (inactive) | > 10 µM (inactive) | > 10 µM (inactive)
